Marks after values point to notes of the source that are not given here. Square brackets hold non-standard residues; d marks the D form. Ends that are not written are not given here. Tyr(3,5-Br2) = N[C@@H](Cc1cc(Br)c(O)c(Br)c1)C(=O)O; Nle = CCCC[C@H](N)C(=O)O
Columns and labels:
hepatocarcinoma H22 = assay: survival of mice transplanted with H22 hepatocarcinoma; type: in vivo, BALB/c mice; settings: for survival of mice transplanted with H22 tumor cells: 80 μg/kg/day, vs saline control P<0.05; for Survival Prolongation / Survival time (first column) / Survival time (second column): 80 μg/kg daily i.p.
Experimental: Healthy BALB/c mice were randomized into groups of CMS-024.04, CMS-025.05, CMS-024.14, and CMS-024.16 (80 μg/kg/day), 5-Fu (20 mg/kg/day, once for every two days), saline (0.2 ml/day), and normal group (without tumor cell inoculation).
Mice inoculated with hepatocarcinomas for 6-8 days were sacrificed. The ascites was collected and the cell concentration adjusted to 5×10^7/ml with D-Hanks' solution. 0.2 ml of this was inoculated intraperitoneally to each BALB/c mouse except for the normal controls.
Administration of test substance was started on the next day after the tumor cell inoculation. The peptides and saline were applied daily and 5-FU once every two days for 60 continuous days or until the death of the mice.
The time of death was recorded and survival time prolongation calculated. Survival time prolongation was calculated as below: Survival prolongation (%)=(Average survival days of test group)−(Average survival days of saline control group)/(Average survival days of saline group)×100%.

[1] = tested on: Balb/c mice swimming time model; assay: exhaustive swimming time of mice (Example 11); type: in vivo; settings: 20 μg/kg/day i.p., 30 days
Experimental: Balb/c male mice were randomized into groups of CMS-001.30 (20 μg/kg/day), CMS-001.31 (20 μg/kg/day), EPO (1000 u/kg/day, three times per week), and saline control. The test substance was dissolved in 0.5 ml saline and applied intraperitoneally once per day for 30 continuous days (EPO was replaced with saline if EPO was not applied). On the tenth day, the mice were trained to swim for 10 min at water temperature of 25±1° C. 30 min after the last test substance administration, the mice were placed to swim in the swimming tank (50 cm×50 cm×40 cm). The depth of water was 30 cm and water temperature 25±1° C. The limbs of the mice were kept moving in the whole process. The swimming (min) time of the mice until death was recorded. Exhaustive swimming time extension rate (ESTR) (%)=(Mean exhaustive swimming time of test group−Mean exhaustive swimming time of saline control)/(Mean exhaustive swimming time of saline control)×100%. 1.4 Statisitics

BALB/c mice [2] = assay: liver glycogen level of mice; type: in vivo
Experimental: The mice were randomized into groups of CMS-001 (20 μg/kg/day, 5 μg/kg/day), CMS-008 (500 μg/kg/day, 125 μg/kg/day), and saline control. The test substance was administered by intraperitoneal injection once per day for 30 continuous days. A week after the start the of the test substance administration, the mice were trained to swim for 10 min, at water temperature of 25±1° C. 30 min after the last injection, the mice were killed by cervical dislocation and the liver was dissected, washed with saline, and blotted dry with filter paper. About 100 mg liver was accurately weighed and the liver glycogen level was determined by the Anthracene Ketone reagent kit. Glycogen weight (mg) in every 100 g of liver=DU/DS×0.5×homogenization liquid vol./liver weight(g)×100×0.9.

BALB/c mice [3] = assay: blood lactic acid level of mice after exercise; type: in vivo; settings: for Lactic acid elimination after rest: 20 min rest
Experimental: (§1) The mice were randomized into groups of CMS-001 (20 μg/kg/day, 5 μg/kg/day), CMS-008 (500 μg/kg/day, 125 μg/kg/day), and saline control. The test substance was administered by intraperitoneal injection once per day for 30 continuous days. A week after the start the of the test substance administration, the mice were trained to swim for 10 min, at water temperature of 25±1° C.
30 min after the last injection, 20 μl of blood was first collected from the orbital sinus. The mice were then weighed, and lead pieces corresponding to 4% of the body weight were wrapped to the tails of the mice at about 1 cm away from the body. The mice were placed to swim in the swimming tank for 10 min, at water depth of 30 cm and temperature of 30±1° C. The limbs of the mice were kept moving in the whole process. Immediately after the exercise and after resting for 20 min, 20 μl of blood was collected from the orbital sinus again. The blood was added into 40 μl hypotonic buffer and sonicated. Lactic acid level in the blood was determined by the lactic acid analyzer.
The amount of lactic acid increase after exercise is calculated based on the amount of lactic acid level immediately after exercise minus the lactic acid level before exercise.
The amount of lactic acid elimination after rest was calculated based on the amount of lactic acid level immediately after exercise minus the lactic acid level after rest.

BALB/c mice [4] = assay: serum urea nitrogen level after exercise; type: in vivo
Experimental: as §1, with “C. 30 min after the last injection, the mice were placed to swim in the swimming tank without addition of weight for 90 min, at water depth of 30 cm temperature of 30±1° C. The mice were then allowed to rest for 30 min, and blood was collected from the orbital sinus. The serum was isolated and the BUN was determined by a fully automated Biochemistry Analyser.” for “C.”

BALB/c mice [5] = assay: serum SOD, MDA, AST, ALT levels after exhaustive exercise; type: in vivo
Experimental: The mice were randomized into groups of CMS-001 (20 μg/kg/day, 5 μg/kg/day), CMS-008 (500 μg/kg/day, 125 μg/kg/day), and saline control. The test substance was administered by intraperitoneal injection once per day for 30 continuous days. A week after the start the of the test substance administration, the mice were trained to swim for 10 min, at water temperature of 25±1° C. 30 min after the last injection, the mice were placed to swim in the swimming tank without addition of weight at water depth of 30 cm and temperature of 25±1° C.^[4]. By the first time the mice sunk, the mice were rescued and blood was collected from the orbital sinus immediately. The serum was isolated and the MDA, SOD, AST, and ALT levels determined.

[6] = tested on: BALB/c mice exhaustive swimming model; assay: exhaustive swimming time of mice; type: in vivo; settings: 30 days
Experimental: as §1
30 min after the last injection, the mice were weighed, and lead pieces corresponding to 5% of the body weight were wrapped to the tails of the mice at about 1 cm away from the body. The mice were placed in the swimming tank, at water depth of 30 cm and temperature of 25±1° C. The limbs of the mice were kept moving in the whole process. The time of swimming until the death was recorded.

Substance: Tyr-Ser-Nle (Tyr-Ser-[Nle]) [CMS-024.04, Nle = norleucine (2-aminohexanoic acid)]
- survival of mice transplanted with H22 tumor cells (hepatocarcinoma H22): prolong the survival
- Survival Prolongation (hepatocarcinoma H22; Table 6.1 experiment): 15.8* %
- Survival time (first column) (hepatocarcinoma H22; Table 6.1 experiment): 19.0 ± 0.9 days
- Survival time (second column) (hepatocarcinoma H22; Table 6.1 experiment): 20.2 ± 4.4 days

Substance: PTTKTYFP [CMS-001.31]
- ESTR (exhaustive swimming time extension rate) [1]: 76.0* %

Substance: PTTKTYFPHF [CMS-001]
- liver glycogen (BALB/c mice [2]; 5 μg/kg/day): 439 ± 271 mg/100 g liver tissue
- liver glycogen (BALB/c mice [2]; 20 μg/kg/day): 1567 ± 604 mg/100 g liver tissue
- Lactic acid increase after exercise (BALB/c mice [3]; 5 μg/kg/day): 2.60 ± 0.33 mmol/L
- Lactic acid increase after exercise (BALB/c mice [3]; 20 μg/kg/day): 2.56 ± 0.41 mmol/L
- Lactic acid elimination after rest (BALB/c mice [3]; 5 μg/kg/day): 2.96 ± 0.33 mmol/L
- Lactic acid elimination after rest (BALB/c mice [3]; 20 μg/kg/day): 3.14 ± 0.64 mmol/L
- Urea Nitrogen (BALB/c mice [4]; 5 μg/kg/day): 6.9 ± 1.6 mmol/L
- Urea Nitrogen (BALB/c mice [4]; 20 μg/kg/day): 7.3 ± 2.1 mmol/L
- ALT (BALB/c mice [5]; 20 μg/kg/day): 32.7 ± 3.0 U/L
- AST (BALB/c mice [5]; 20 μg/kg/day): 117.0 ± 19.2 U/L
- MDA (BALB/c mice [5]; 20 μg/kg/day): 4.4 ± 0.2 nmol/L
- SOD (BALB/c mice [5]; 20 μg/kg/day): 400.6 ± 45.6 U/ml
- Swimming time ([6]; 5 μg/kg/day i.p.): 105.7 ± 19.8 min
- Swimming-time extension ([6]; 5 μg/kg/day i.p.): 56.7* %
- Swimming time ([6]; 20 μg/kg/day i.p.): 99.8 ± 30.6 min
- Swimming-time extension ([6]; 20 μg/kg/day i.p.): 48.0* %

Substance: (3,5-dibromo-Tyr)-Ser-Leu ([Tyr(3,5-Br2)]-Ser-Leu) [CMS-024.14]
- survival of mice transplanted with H22 tumor cells (hepatocarcinoma H22): prolong the survival
- Survival Prolongation (hepatocarcinoma H22; Table 6.2 experiment): 50.3%
- Survival time (first column) (hepatocarcinoma H22; Table 6.2 experiment): 16.0 ± 0.0 days
- Survival time (second column) (hepatocarcinoma H22; Table 6.2 experiment): 27.6 ± 8.5 days

Substance: KAVGHLDDLPGAL [CMS-008]
- liver glycogen (BALB/c mice [2]; 125 μg/kg/day): 1275 ± 726 mg/100 g liver tissue
- liver glycogen (BALB/c mice [2]; 500 μg/kg/day): 1408 ± 457 mg/100 g liver tissue
- Lactic acid increase after exercise (BALB/c mice [3]; 125 μg/kg/day): 2.70 ± 0.15 mmol/L
- Lactic acid increase after exercise (BALB/c mice [3]; 500 μg/kg/day): 2.23 ± 0.30 mmol/L
- Lactic acid elimination after rest (BALB/c mice [3]; 125 μg/kg/day): 3.62 ± 0.57 mmol/L
- Lactic acid elimination after rest (BALB/c mice [3]; 500 μg/kg/day): 3.71 ± 0.22 mmol/L
- Urea Nitrogen (BALB/c mice [4]; 125 μg/kg/day): 7.2 ± 2.3 mmol/L
- Urea Nitrogen (BALB/c mice [4]; 500 μg/kg/day): 7.1 ± 2.0 mmol/L
- ALT (BALB/c mice [5]; 500 μg/kg/day): 32.9 ± 5.2 U/L
- AST (BALB/c mice [5]; 500 μg/kg/day): 116.6 ± 18.8 U/L
- MDA (BALB/c mice [5]; 500 μg/kg/day): 4.1 ± 0.4 nmol/L
- SOD (BALB/c mice [5]; 500 μg/kg/day): 415.7 ± 31.5 U/ml
- Swimming time ([6]; 125 μg/kg/day i.p.): 106.5 ± 19.4 min
- Swimming-time extension ([6]; 125 μg/kg/day i.p.): 57.9* %
- Swimming time ([6]; 500 μg/kg/day i.p.): 116.5 ± 17.7 min
- Swimming-time extension ([6]; 500 μg/kg/day i.p.): 72.7* %
